Source: patent US9211238B2, “Carrier system for the transport of active substances into the skin” (priority 2010, dated 2015)

Assay: Anti-oxidative potential (AP) in vitro, test radical DPPH, ESR spectroscopy
Assay type: biochemical
Details: 1% ferulic acid
Method: The anti-oxidative potential (AP) of all described formulations was determined in vitro. In this method the formulations were incubated with a test radical (DPPH) and afterwards the reduction of these radicals over the time was measured by ESR (electron spin resonance spectroscopy). AP=amount of free radicals/mg of tested substance*minute.

## COc1cc(/C=C/C(=O)O)ccc1O [1% ferulic acid (EtOH/water), ferulic acid]
  anti-oxidative potential (AP): AP = 723 amount of free radicals/mg of tested substance*minute
